Experiment [1] concerns Mycobacterium tuberculosis. Nature of the experiment: Antitubercular activity against Mycobacterium tuberculosis H37Rv after 7 days by microplate alamar blue assay. The class given is functional. The note with it: 168 h. Background: Alamar Blue is a resazurin reagent that responds to reducing activity.
Experiment [2] relates to Bacillus anthracis. Nature of the experiment: Antibacterial activity against Bacillus anthracis after 18 hrs by broth microdilution method. In kind it is functional. For orientation: In broth dilution the organism is exposed to a series of concentrations in liquid medium.
Experiment [3] relates to Staphylococcus aureus. Nature of the experiment: Antibacterial activity against Staphylococcus aureus by broth microdilution method. In kind it is functional.
Experiment [4] concerns Escherichia coli. Nature of the experiment: Antibacterial activity against Escherichia coli by broth microdilution method. The class given is functional.
For experiment [5], the system named is Candida albicans. In words: Antifungal activity against Candida albicans by broth microdilution method. In kind it is functional.
Experiment [6] deals with Vero. In words: Cytotoxicity against african green monkey Vero cells by cell Titer_Glo assay. The class given is cell-based. The settings on record: Chlorocebus sabaeus.

Each structure is given as a SMILES string. Converted amounts (≈) assume the structure as drawn.

As usually defined, the MIC is the lowest concentration found to suppress growth. As usually defined, the IC50 is the concentration that gives 50% inhibition. Regarding `C=C1CC[C@@H]2[C@](C)(CC[C@H]3[C@@]2(C)CC[C@H]2C(C)(C)CC[C@@H](O)[C@@]23C)[C@H]1CNC(=N)N` [SCYTOSCALAROL], the minimal inhibitory concentration (MIC) in experiment [1] amounted to 110 µM (≈ 45.7 µg/mL); in experiment [2], 6 µM (≈ 2.49 µg/mL); in experiment [3] it was 2 µM (≈ 0.831 µg/mL); in experiment [4], 30 µM (≈ 12.5 µg/mL); in experiment [5], 4 µM (≈ 1.66 µg/mL). This compound also displayed a concentration for half-maximal inhibition (IC50) in experiment [6] of 135 µM.

These data come from ChEMBL document CHEMBL1153715, “An antimicrobial guanidine-bearing sesterterpene from the cultured cyanobacterium Scytonema sp” (J Nat Prod, 2009).
